Laboratory results as given in article PMC5216056 (Nature Communications, 2017).
Several values for one entry are separate records, joined by “and”; a condition that tells them apart may be missing. Equal entries are not always repeated. Where two headings read alike, the source gives them in different places.

Tests used:
hCB1R = target: T1, hCB1R (Homo sapiens, UniProt P21554); assay: cell-based; type: cell-based
T1 construct: host or cells: CHO

hGPR55 = target: T2, hGPR55 (Homo sapiens, UniProt Q9Y2T6); assay: cell-based; conditions: β-arrestin recruitment; for EC50: read-out: GPR55 pEC50 (± SEM) (converted)
T2 construct: host or cells: CHO-K1 (PathHunter hGPR55_bgal)
T2 sequence (Q9Y2T6 whole entry): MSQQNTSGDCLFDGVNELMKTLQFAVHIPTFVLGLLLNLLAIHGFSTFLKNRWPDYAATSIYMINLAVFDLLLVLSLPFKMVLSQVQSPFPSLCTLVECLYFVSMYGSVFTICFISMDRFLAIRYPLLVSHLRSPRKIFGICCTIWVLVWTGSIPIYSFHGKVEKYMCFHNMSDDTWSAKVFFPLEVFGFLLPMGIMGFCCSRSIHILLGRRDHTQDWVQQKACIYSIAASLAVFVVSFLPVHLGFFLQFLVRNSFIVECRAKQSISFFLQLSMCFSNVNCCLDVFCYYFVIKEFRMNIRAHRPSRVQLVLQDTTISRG

Human recombinant TRPV1 = target: T3, Human recombinant TRPV1 (Homo sapiens, UniProt Q8NER1); assay: cell-based; type: cell-based; conditions: for EC50: read-out: TRPV1 Potency EC50
T3 construct: expressed in transfected cells; host or cells: HEK293 (TRPV1-HEK-293, gift from John Davis, GlaxoSmithKline)
T3 sequence (Q8NER1 whole entry): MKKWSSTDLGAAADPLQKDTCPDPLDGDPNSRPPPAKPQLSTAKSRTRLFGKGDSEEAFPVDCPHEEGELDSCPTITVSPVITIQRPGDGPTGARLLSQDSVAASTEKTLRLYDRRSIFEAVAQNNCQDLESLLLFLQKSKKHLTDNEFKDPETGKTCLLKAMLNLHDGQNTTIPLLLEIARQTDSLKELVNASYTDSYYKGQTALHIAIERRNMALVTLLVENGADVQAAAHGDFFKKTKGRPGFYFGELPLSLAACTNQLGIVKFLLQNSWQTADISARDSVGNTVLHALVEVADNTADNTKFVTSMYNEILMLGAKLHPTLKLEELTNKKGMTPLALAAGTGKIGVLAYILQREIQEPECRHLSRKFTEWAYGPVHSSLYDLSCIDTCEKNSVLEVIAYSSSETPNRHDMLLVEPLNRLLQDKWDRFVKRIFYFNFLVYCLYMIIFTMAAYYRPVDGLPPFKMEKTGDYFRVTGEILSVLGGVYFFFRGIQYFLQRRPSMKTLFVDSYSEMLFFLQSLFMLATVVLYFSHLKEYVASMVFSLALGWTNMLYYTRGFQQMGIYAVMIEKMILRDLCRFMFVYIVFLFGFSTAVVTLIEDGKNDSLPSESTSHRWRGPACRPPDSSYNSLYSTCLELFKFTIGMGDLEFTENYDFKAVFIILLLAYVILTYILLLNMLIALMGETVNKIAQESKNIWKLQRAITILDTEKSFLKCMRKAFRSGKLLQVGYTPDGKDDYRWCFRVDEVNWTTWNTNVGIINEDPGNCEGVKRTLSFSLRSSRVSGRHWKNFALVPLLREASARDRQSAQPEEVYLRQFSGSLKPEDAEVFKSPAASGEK

Rat recombinant TRPV4 = target: T4, Rat recombinant TRPV4 (Rattus norvegicus, UniProt Q9ERZ8); assay: cell-based; type: cell-based; conditions: for IC50: vs 4αPDD 1μM, read-out: TRPV4 IC50 for desensitization
T4 construct: expressed in transfected cells; host or cells: HEK293 (TRPV4-HEK-293, gift from HB Bradshaw, Indiana University)
T4 sequence (Q9ERZ8 whole entry): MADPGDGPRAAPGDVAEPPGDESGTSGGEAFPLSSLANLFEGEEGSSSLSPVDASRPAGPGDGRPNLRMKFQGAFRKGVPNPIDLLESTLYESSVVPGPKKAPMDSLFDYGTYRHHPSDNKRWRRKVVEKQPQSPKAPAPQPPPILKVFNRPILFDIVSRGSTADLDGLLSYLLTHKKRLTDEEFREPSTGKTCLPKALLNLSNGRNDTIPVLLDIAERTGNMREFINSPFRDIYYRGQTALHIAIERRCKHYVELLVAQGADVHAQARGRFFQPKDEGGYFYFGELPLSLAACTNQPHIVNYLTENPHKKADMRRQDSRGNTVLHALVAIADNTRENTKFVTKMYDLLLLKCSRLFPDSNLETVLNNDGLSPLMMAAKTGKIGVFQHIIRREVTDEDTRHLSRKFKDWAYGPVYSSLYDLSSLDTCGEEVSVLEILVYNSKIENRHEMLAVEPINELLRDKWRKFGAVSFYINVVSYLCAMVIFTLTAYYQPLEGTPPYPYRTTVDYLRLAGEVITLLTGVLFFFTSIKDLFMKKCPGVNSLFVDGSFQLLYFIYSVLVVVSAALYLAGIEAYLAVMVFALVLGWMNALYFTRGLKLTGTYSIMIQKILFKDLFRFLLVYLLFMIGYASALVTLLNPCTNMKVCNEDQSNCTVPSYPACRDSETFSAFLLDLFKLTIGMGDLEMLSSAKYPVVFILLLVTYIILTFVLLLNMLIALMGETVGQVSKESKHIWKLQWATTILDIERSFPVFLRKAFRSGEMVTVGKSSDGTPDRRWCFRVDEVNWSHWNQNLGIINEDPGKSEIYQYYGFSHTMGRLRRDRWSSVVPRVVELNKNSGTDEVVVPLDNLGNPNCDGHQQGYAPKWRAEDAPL

A1 (h) = target: T5, A1 (h) (Homo sapiens, UniProt P30542); assay: CEREP panel; type: binding; conditions: 10 µM
T5 construct: CEREP
T5 sequence (P30542 1-326): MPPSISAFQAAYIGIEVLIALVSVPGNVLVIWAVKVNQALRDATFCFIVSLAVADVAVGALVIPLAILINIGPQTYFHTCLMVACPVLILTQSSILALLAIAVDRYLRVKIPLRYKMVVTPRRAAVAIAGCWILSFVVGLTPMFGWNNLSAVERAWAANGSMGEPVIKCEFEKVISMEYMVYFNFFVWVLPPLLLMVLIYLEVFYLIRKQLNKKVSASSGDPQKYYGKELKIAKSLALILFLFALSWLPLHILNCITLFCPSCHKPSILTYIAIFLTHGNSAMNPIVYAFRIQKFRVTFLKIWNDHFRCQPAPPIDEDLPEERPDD

A3 (h) = target: T6, A3 (h) (Homo sapiens, UniProt P0DMS8); assay: CEREP panel; type: binding; conditions: 10 µM
T6 construct: CEREP
T6 sequence (P0DMS8 1-318): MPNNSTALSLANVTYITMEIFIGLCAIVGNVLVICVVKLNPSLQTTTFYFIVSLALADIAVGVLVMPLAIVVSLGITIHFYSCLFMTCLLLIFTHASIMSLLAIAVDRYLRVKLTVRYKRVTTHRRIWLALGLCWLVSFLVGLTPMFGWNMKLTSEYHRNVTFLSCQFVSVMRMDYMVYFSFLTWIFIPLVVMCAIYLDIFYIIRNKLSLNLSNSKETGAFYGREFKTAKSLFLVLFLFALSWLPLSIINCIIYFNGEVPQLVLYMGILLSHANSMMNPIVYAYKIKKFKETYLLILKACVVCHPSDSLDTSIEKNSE

AT1 (h) = target: T7, AT1 (h) (Homo sapiens, UniProt P30556); assay: CEREP panel; type: binding; conditions: 10 µM
T7 construct: CEREP
T7 sequence (P30556 1-359): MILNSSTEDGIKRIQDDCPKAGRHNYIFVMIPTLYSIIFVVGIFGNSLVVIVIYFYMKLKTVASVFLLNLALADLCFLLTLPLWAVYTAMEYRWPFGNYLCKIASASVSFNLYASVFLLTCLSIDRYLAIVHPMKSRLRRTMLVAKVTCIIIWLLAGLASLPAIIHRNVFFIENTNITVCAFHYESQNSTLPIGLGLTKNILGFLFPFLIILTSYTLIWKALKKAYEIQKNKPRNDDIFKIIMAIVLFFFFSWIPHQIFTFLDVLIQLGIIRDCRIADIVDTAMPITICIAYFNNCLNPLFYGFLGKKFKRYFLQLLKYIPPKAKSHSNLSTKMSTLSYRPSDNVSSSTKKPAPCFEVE

Na+ channel (site 2) = type: binding; conditions: 10 µM
[1] = target: T8, norepinephrine transporter (h) (Homo sapiens, UniProt P23975); assay: biochemical; type: binding; conditions: 10 µM
T8 construct: CEREP (contract assay)
T8 sequence (P23975 whole entry): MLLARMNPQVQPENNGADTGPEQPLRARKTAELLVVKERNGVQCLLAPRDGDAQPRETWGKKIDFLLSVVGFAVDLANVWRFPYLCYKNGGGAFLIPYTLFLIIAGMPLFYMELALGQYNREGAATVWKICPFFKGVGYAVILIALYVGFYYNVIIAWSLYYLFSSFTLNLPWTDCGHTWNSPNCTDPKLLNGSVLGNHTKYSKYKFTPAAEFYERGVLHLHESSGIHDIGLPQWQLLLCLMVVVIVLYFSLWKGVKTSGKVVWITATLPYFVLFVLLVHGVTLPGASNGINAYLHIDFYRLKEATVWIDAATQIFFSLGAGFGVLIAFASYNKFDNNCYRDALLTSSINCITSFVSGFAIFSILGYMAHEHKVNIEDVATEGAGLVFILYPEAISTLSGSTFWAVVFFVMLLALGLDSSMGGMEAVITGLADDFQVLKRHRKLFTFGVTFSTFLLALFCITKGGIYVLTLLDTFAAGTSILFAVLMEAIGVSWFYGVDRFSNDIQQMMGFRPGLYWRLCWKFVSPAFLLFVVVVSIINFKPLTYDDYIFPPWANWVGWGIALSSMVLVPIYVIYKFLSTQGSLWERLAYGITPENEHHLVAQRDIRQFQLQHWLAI

PCP = type: binding; conditions: 10 µM
PPARα (h) = target: T9, PPARα (h) (Homo sapiens, UniProt Q07869); assay: CEREP panel; type: binding; conditions: 10 µM
T9 construct: CEREP (contract assay)
T9 sequence (Q07869 1-468): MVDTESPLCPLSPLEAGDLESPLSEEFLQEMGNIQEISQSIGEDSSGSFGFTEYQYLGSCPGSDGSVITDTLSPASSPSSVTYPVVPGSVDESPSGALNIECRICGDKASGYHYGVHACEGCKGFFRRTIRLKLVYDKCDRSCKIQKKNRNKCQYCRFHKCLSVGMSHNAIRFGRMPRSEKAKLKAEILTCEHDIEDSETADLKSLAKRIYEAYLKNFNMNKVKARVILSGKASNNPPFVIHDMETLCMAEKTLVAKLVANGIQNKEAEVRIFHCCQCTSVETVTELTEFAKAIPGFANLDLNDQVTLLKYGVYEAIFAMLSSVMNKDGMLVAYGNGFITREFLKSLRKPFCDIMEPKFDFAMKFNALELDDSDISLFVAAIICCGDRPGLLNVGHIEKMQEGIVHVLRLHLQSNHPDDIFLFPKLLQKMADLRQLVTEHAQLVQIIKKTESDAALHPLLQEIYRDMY

[2] = 1 μM
mouse P-gp = mouse P-gp (Mus musculus, UniProt P21447); conditions: efflux ratio
mouse P-gp, sequence (P21447 whole entry): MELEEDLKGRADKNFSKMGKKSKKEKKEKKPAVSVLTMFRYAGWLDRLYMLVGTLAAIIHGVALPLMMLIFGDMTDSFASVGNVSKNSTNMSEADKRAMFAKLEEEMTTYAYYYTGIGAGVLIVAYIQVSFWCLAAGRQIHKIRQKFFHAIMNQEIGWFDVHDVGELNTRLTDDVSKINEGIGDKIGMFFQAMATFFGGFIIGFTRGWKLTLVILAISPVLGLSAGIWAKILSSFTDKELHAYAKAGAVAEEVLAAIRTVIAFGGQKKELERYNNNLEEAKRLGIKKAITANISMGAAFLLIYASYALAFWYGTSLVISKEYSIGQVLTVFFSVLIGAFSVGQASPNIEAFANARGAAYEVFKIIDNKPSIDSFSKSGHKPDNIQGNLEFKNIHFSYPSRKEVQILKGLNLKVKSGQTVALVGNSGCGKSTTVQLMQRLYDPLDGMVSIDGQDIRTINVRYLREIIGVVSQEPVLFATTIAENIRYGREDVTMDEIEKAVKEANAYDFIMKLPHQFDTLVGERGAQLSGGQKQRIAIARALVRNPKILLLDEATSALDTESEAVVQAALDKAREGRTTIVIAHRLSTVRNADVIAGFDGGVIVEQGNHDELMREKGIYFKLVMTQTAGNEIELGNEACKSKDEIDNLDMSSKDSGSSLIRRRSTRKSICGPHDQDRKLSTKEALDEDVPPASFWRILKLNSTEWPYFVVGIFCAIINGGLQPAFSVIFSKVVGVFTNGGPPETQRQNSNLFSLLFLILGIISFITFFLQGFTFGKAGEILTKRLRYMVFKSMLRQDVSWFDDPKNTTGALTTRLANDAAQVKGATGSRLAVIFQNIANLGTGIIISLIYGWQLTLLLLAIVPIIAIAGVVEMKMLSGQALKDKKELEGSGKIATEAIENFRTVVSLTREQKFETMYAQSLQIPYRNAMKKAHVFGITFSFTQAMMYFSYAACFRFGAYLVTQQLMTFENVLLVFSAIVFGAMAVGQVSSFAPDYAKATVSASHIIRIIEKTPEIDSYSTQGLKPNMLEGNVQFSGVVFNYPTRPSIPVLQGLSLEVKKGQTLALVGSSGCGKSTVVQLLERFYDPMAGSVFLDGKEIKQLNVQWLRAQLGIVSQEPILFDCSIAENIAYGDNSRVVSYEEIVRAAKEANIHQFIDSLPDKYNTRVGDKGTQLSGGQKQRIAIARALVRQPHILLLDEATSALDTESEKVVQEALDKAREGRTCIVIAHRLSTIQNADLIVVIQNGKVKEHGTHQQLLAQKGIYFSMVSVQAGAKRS

[3] = i.v., mice
hCB2R = hCB2R (Homo sapiens, UniProt P34972); assay: cell-based; type: cell-based; design: expressed in transfected cells; host or cells: Flp-In-293 (Invitrogen #R750-07), pcDNA5/FRT
hCB2R, sequence (P34972 whole entry): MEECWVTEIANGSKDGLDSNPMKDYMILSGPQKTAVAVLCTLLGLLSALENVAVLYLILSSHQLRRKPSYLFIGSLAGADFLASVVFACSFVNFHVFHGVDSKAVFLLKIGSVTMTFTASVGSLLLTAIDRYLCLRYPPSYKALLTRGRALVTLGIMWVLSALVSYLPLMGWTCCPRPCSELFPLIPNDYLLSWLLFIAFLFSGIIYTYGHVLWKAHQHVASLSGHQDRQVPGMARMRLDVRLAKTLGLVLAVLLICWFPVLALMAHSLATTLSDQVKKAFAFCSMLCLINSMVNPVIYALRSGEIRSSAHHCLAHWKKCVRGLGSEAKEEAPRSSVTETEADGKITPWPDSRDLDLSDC

[4] = system: AEA cellular uptake in HMC-1 cells; assay: cells; type: cell-based, human; conditions: FAAH-deficient cells
[5] = system: Ca2+ channel (L, diltiazem site); assay: CEREP panel; type: binding; conditions: 10 µM
[6] = read-out: TRPV1 IC50 for antagonism or desensitization

T1 sequence (P21554 whole entry): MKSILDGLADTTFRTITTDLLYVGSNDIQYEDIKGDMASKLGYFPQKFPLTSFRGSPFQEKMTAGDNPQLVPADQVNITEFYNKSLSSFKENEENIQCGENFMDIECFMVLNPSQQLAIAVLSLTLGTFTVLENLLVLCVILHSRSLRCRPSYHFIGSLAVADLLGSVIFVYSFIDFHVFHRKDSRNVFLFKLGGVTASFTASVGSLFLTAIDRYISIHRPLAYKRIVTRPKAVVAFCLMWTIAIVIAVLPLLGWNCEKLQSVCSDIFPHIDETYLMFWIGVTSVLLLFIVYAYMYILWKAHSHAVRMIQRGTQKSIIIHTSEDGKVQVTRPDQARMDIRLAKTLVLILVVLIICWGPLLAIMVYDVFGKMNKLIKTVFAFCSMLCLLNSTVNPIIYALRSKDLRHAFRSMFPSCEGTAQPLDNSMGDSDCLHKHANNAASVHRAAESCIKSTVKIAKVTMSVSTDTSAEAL

SMILES	Emax ± SEM pERK hCB1R (hCB1R)	pEC50 ± SEM pERK hCB1R (hCB1R)	GPR55 pEC50 (± SEM) (hGPR55)	TRPV1 Efficacy (% ionomycin 4μM) (Human recombinant TRPV1) [%]	IC50 (Human recombinant TRPV1; [6]) [µM]	EC50 (Human recombinant TRPV1) [µM]	TRPV4 Efficacy (% ionomycin 4μM) (Rat recombinant TRPV4) [%]	IC50 (Rat recombinant TRPV4) [µM]	% inhibition A1 (h) (A1 (h)) [%]	% inhibition A3 (h) (A3 (h)) [%]	% inhibition AT1 (h) (AT1 (h)) [%]	% inhibition Na+ channel (site 2) (Na+ channel (site 2)) [%]	% inhibition norepinephrine transporter (h) [1] [%]	% inhibition PCP (PCP) [%]	% inhibition PPARα (h) (PPARα (h)) [%]	CL hepatocytes mouse [2] [µL/min/mio cells]	pEC50 ± SEM GIRK hCB2R (hCB2R)	EC50 (hGPR55) [µM]	% inhibition Ca2+ channel (L, diltiazem site) [5] [%]	also measured
CCCC(C)(C)c1ccc2c(c1)OC(C)(C)[C@@H]1CC=C(C)C[C@@H]21 [JWH133]	10 ± 3	< 4	< 5	24.6	77.7 ± 3	8.2	13.6	> 100	-6	-26	7	-20	-9	2	-25	9.8	< 5	–	–	GPR55 Emax ± SEM (%) or % effect at 10 µM (hGPR55): -2 ± 3%; EC50 (Rat recombinant TRPV4; read-out: TRPV4 Potency EC50): 12 µM; P-gp (ER) mouse (mouse P-gp): 1.7; AUCinf [3]: 1750 ng·h/mL; AUCinf/dose [3]: 1090 kg·ng·h/mL/mg; AUClast [3]: 1650 ng·h/mL; CL [3]: 0.92 L/h/kg; T1/2 [3]: 1.1 h and 1 h; Vss [3]: 1.32 L/kg and 1 to 3 L/kg; C0 ([3]; 1.0-2.0 mg/kg, extrapolated): 3870 ng/mL; Emax ± SEM GIRK hCB2R (hCB2R): 31 ± 12
Cc1c(C(=O)NN2CCCCC2)nn(-c2ccc(Cl)cc2Cl)c1-c1ccc(Cl)cc1 [SR141716A]	–	–	–	17.5	–	12	< 10	2 ± 0.1	–	–	–	–	–	–	–	–	–	–	–	IC50 ([4]; Homo sapiens, HMC1, read-out: AEA reuptake IC50 (95% CI) HMC-1 cells): 3.5 µM; IC50 (Human recombinant TRPV1; TRPV1 IC50 for antagonism or desensitization): 33.7 µM and 11.5 µM; inhibition at 10 µM (PPARα (h); read-out: % inhibition PPARα (h)): -5%
CCCCC/C=C\C/C=C\C/C=C\C/C=C\CCCC(=O)NCCO [Anandamide, N-arachidonoylethanolamine]	–	–	–	–	–	–	–	–	–	–	–	–	–	–	–	–	–	> 10	–	Emax (hCB2R; AtT20, read-out: Emax ± SEM GIRK hCB2R): 51 ± 5%
CN1CCCCC1Cn1cc(C(=O)c2cc([N+](=O)[O-])ccc2I)c2ccccc21 (racemic) [(rac)-AM1241]	86 ± 3	5.07 ± 0.05	–	–	–	–	–	–	–	–	–	–	–	–	–	–	5.23 ± 0.21	–	–	Emax ± SEM GIRK hCB2R (hCB2R; normalized to CP55940): 59 ± 14%
Cc1c(C(=O)c2cccc3ccccc23)c2cccc3c2n1[C@H](CN1CCOCC1)CO3 [WIN55212-2]	–	–	< 5	44.4	35.8 ± 2.2	19.2	< 10	16.1 ± 1.7	10	84	29	68	33	-3	-4	568	–	–	55	IC50 ([4]; read-out: AEA reuptake IC50 (95% CI) HMC-1 cells): > 5 µM
CCCCCCC(C)(C)c1ccc([C@@H]2C[C@H](O)CC[C@H]2CCCO)c(O)c1 [CP55940]	–	–	–	–	–	–	–	–	–	–	–	71	–	1	–	–	–	> 10	-7	inhibition at 10 µM (A1 (h); read-out: % inhibition A1 (h)): 21%; inhibition at 10 µM (A3 (h); read-out: % inhibition A3 (h)): 98%; inhibition at 10 µM (AT1 (h); read-out: % inhibition AT1 (h)): 63%; inhibition at 10 µM ([1]; read-out: % inhibition norepinephrine transporter (h)): 89%
